This is an account of results in patent publication US11084822B2, “Salts and processes of preparing a PI3K inhibitor” (Incyte Corporation, priority 2015, dated 2021).

What all share (assay type): biochemical
The target in one experiment is PI3Kδ (Homo sapiens (Human), UniProt O00329). Put plainly: Example A2: PI3K Enzyme Assay ([γ-33P]ATP filter plate). Particulars: assay of Example A2. The method, then:
PI3K isoforms α, β, δ and γ are purchased from Millipore (Bedford, Mass.).
The kinase reactions are conducted in clear-bottom 96-well plate from Thermo Fisher Scientific in a final volume of 24 μL. Inhibitors are first diluted serially in DMSO and added to the plate wells before the addition of other reaction components. The final concentration of DMSO in the assay is 0.5%. […] The reaction mixture is prepared containing 50 μM PIP2, kinase and varying concentration of inhibitors. […] Reactions are incubated for 180 minutes and terminated by the addition of 100 μL of 1 M potassium phosphate pH 8.0, 30 mM EDTA quench buffer. A 100 μL aliquot of the reaction solution are then transferred to 96-well Millipore MultiScreen IP 0.45 μm PVDF filter plate (The filter plate is prewetted with 200 μL 100% ethanol, distilled water, and 1 M potassium phosphate pH 8.0, respectively). […] After drying by aspiration and blotting, the plate is air dried in an incubator at 37° C. overnight. Packard TopCount adapter (Millipore) is then attached to the plate followed with addition of 120 μL Microscint 20 scintillation cocktail (Perkin Elmer) in each well. After the plate sealing, the radioactivity of the product is determined by scintillation counting on Topcount (Perkin-Elmer). […]

In a further experiment the test system is PI3K. As to the kind of experiment: PI3K inhibition according to at least one assay described herein.
The target in a further experiment is JAK1 (Homo sapiens (Human), UniProt P23458). As to the kind of experiment: JAK1 IC50 by the method of Assay A at 1 mM ATP.
Another experiment concerns the target JAK2 (Homo sapiens (Human), UniProt O60674). As to the kind of experiment: JAK2 versus JAK1 (Assay A at 1 mM ATP). Particulars: ratio JAK2/JAK1, Assay A at 1 mM ATP.

JAK1, sequence (P23458 whole entry, species assumed): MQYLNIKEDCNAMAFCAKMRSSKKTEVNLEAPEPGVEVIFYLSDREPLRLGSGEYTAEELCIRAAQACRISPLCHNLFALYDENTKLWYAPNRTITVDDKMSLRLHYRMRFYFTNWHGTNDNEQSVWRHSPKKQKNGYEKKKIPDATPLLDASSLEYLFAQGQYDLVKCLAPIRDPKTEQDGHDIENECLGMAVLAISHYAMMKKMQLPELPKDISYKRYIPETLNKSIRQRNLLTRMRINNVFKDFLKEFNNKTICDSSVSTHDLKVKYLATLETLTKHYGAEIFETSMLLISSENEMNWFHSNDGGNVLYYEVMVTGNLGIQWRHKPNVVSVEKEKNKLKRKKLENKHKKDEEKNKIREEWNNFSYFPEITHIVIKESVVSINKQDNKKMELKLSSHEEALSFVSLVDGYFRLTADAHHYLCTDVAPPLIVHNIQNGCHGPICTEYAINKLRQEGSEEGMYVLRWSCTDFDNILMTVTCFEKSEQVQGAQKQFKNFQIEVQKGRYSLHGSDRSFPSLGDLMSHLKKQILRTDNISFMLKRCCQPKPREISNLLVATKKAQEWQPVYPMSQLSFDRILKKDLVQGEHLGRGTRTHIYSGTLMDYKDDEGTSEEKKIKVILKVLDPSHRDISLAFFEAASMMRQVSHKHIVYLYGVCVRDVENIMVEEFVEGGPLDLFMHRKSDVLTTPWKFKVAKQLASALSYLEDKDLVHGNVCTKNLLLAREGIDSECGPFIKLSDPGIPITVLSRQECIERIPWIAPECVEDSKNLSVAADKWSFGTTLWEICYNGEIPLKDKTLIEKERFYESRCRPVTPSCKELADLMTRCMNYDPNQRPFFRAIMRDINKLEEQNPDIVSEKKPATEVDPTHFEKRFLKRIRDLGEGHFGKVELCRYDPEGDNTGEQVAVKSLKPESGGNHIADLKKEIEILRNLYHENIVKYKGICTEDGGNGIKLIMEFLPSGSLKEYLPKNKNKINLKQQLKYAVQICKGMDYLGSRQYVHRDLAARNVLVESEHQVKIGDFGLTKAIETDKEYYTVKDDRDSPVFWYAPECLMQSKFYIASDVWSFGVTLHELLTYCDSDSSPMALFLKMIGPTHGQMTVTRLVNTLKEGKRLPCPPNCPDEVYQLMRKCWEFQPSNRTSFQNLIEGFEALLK
JAK2, sequence (O60674 whole entry, species assumed): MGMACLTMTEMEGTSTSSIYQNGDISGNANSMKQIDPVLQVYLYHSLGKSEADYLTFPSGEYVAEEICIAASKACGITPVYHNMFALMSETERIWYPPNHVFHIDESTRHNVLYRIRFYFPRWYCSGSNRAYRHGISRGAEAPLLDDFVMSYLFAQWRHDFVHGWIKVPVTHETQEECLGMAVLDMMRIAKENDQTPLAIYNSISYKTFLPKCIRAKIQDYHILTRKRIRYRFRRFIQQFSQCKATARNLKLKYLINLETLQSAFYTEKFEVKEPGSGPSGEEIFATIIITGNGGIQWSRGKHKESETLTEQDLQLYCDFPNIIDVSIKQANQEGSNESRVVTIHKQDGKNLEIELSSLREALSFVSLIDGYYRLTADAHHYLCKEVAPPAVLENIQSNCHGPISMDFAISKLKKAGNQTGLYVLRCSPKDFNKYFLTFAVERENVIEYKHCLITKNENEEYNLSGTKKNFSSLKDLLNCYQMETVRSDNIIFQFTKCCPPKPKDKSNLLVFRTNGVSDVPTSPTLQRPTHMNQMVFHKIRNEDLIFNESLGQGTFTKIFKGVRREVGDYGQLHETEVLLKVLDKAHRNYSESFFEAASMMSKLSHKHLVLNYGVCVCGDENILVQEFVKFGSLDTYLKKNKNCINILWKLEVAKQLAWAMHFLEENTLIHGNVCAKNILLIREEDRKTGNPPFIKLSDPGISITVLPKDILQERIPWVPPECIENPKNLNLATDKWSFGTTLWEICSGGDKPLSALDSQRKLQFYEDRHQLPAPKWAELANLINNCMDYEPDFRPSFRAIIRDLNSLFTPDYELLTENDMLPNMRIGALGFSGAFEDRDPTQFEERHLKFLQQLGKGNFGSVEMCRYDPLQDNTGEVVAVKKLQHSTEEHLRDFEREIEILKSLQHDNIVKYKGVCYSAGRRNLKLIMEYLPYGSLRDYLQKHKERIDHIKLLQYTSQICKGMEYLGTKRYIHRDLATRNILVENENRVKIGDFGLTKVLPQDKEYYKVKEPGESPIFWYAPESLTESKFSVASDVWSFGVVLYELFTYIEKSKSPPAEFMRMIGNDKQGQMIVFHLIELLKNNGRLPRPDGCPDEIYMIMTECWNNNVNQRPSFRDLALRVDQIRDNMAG
PI3Kδ, sequence (O00329 whole entry, species assumed, canonical isoform): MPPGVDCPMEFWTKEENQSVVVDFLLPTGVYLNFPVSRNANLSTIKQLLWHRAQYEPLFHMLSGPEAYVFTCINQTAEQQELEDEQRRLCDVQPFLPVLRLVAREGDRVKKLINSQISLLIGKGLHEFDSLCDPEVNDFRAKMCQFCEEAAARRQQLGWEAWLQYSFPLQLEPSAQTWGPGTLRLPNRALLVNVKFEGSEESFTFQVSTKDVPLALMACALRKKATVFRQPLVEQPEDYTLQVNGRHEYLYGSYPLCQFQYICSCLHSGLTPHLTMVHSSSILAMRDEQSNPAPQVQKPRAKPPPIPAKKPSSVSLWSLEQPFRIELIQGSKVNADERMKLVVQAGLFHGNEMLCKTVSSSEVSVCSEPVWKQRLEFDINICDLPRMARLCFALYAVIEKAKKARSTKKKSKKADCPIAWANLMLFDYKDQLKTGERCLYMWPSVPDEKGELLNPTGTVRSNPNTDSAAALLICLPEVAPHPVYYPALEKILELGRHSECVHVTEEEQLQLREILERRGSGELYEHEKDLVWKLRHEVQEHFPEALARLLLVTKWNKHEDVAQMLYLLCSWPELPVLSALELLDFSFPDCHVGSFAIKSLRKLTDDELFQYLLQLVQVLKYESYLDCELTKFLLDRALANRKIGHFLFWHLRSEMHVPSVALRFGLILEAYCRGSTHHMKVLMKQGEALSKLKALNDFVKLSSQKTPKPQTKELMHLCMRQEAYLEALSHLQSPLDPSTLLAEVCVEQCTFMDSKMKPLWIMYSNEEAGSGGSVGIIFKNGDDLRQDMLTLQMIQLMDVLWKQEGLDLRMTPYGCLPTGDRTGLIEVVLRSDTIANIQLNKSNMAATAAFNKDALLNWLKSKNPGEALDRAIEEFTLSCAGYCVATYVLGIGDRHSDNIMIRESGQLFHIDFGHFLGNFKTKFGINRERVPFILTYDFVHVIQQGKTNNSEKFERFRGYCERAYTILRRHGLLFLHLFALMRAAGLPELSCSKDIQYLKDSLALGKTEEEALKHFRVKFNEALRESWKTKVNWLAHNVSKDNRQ
PI3Kδ, sequence (P27986 whole entry partner, species assumed, canonical isoform): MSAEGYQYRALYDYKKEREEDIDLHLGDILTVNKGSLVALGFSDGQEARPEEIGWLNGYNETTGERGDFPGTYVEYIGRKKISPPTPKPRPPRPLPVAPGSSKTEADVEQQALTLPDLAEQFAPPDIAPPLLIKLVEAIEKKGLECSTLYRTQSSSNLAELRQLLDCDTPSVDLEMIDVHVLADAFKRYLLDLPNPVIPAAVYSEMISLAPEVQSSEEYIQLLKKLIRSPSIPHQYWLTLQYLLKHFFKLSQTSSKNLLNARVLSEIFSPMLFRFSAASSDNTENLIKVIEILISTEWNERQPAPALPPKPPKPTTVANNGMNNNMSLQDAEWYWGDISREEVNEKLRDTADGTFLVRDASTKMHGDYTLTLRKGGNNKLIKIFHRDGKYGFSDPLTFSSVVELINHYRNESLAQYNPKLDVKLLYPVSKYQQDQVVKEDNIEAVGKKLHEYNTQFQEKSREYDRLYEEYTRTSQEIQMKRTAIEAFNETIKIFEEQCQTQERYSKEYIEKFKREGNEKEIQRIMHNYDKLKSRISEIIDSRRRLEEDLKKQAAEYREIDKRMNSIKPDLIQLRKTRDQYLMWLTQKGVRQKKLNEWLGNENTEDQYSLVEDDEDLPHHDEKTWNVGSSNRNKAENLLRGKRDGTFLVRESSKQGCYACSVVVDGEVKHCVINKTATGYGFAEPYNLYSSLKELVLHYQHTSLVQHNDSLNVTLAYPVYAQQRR

As to `CCOc1c([C@H](C)n2nc(C)c3c(N)ncnc32)cc(Cl)c(F)c1[C@@H]1CNC(=O)C1.Cl` [(R)-4-(3-((S)-1-(4-amino-3-methyl-1H-pyrazolo[3,4-d]pyrimidin-1-yl)ethyl)-5-chloro-2-ethoxy-6-fluorophenyl)pyrrolidin-2-one hydrochloride], the “selectivity for PI3Kδ” value at PI3Kδ is given as “selective inhibitor for PI3Kδ”. Further, in the experiment on PI3K, the PI3K inhibition entry was “found to be PI3K inhibitors”.
Regarding `C[C@@H](O)c1nc2cnc3ccsc3c2n1[C@H]1CC[C@H](CC#N)OC1` [Compound 1, ((2R,5S)-5-{2-[(1R)-1-hydroxyethyl]-1H-imidazo[4,5-d]thieno[3,2-b]pyridin-1-yl}tetrahydro-2H-pyran-2-yl)acetonitrile], the IC50 (in general, the midpoint of a concentration-inhibition curve) against JAK1 was less than 100 nM. Further, the JAK2/JAK1 at JAK2 is given as more than 10.
